Assay results from US10906880B2, “Kind of isothiazole oxime ether-containing strobilurin derivatives and its preparation methods and application” (priority 2016, dated 2021).
Like-named read-outs stand apart in the source and are kept apart here.

How the values were obtained:
[1] = test system: Rhizoctonia cerealis; experiment: Fungicide activity, mycelial growth inhibition on PDA plate; assay type: cell-based; conditions: Ceratobasidium cereale, read-out: Fungicidal activity inhibition, RC
[2] = test system: Physalospora piricola; experiment: as above; assay type: cell-based; conditions: 50 μg/mL, P. piricola; read-out: Fungicidal activity inhibition, PP
[3] = test system: Botrytis cinerea; experiment: as above; assay type: cell-based; conditions: Botrytis cinerea, 50 μg/mL, B. cinerea; read-out: Fungicidal activity inhibition, BC
[4] = test system: TMV; experiment: Anti-TMV activity on tobacco, curative mode; assay type: in vivo, tobacco mosaic virus; conditions: Tobacco mosaic virus, 100 μg/mL, tobacco; read-out: Anti-TMV activity inhibition, Curative effect
[5] = test system: Gibberella zeae; experiment: microbe, parasite or virus in culture; assay type: cell-based; conditions: Fusarium graminearum, read-out: Fungicidal activity inhibition, GZ, 50 μg/mL, G. zeae
[6] = test system: Pellicularia sasakii; experiment: Fungicide activity, mycelial growth inhibition on PDA plate; assay type: cell-based; conditions: 50 μg/mL, P. sasakii; read-out: Fungicidal activity inhibition, PS
[7] = test system: Phytophthora infestans (Mont) de Bary; experiment: microbe, parasite or virus in culture; assay type: cell-based; conditions: Phytophthora infestans, read-out: Fungicidal activity inhibition, PI, 50 μg/mL, P. infestans (Mont.) de Bary
[8] = test system: Cercospora arachidicola; experiment: Fungicide activity, mycelial growth inhibition on PDA plate; assay type: cell-based; conditions: Mycosphaerella arachidis, 50 μg/mL, C. arachidicola; read-out: Fungicidal activity inhibition, CA
[9] = test system: TMV; experiment: Anti-TMV activity on tobacco, induction mode (systemic acquired resistance); assay type: in vivo, tobacco mosaic virus; conditions: Tobacco mosaic virus, 100 μg/mL, read-out: Anti-TMV activity inhibition, Induction effect
[10] = test system: TMV; experiment: Anti-TMV activity on tobacco, inactivation mode; assay type: in vivo, tobacco mosaic virus; conditions: Tobacco mosaic virus, 100 μg/mL, read-out: Anti-TMV activity inhibition, Inactivation effect
[11] = test system: Sclerotinia sclerotiorum; experiment: Fungicide activity, mycelial growth inhibition on PDA plate; assay type: cell-based; conditions: Sclerotinia sclerotiorum, read-out: Fungicidal activity inhibition, SS
[12] = test system: TMV; experiment: Anti-TMV activity on tobacco, protection mode; assay type: in vivo, tobacco mosaic virus; conditions: Tobacco mosaic virus, 100 μg/mL, read-out: Anti-TMV activity inhibition, Protection effect
[13] = test system: Alternaria solani; experiment: Fungicide activity, mycelial growth inhibition on PDA plate; assay type: cell-based; conditions: Alternaria solani, 50 μg/mL, A. solani; read-out: Fungicidal activity inhibition, AS

Structure (SMILES) | inhibition at 50 µg/mL ([1]; 50 μg/mL, R. cerealis) [%] | inhibition at 50 µg/mL [1] [%] | inhibition at 50 µg/mL [2] [%] | inhibition at 50 µg/mL [3] [%] | inhibition at 100 µg/mL [4] [%] | inhibition at 50 µg/mL [5] [%] | inhibition at 50 µg/mL [6] [%] | inhibition at 50 µg/mL [7] [%] | inhibition at 50 µg/mL [8] [%] | inhibition at 100 µg/mL [9] [%] | inhibition at 100 µg/mL [10] [%] | inhibition at 50 µg/mL ([11]; 50 μg/mL, S. sclerotiorum) [%] | inhibition at 50 µg/mL [11] [%] | inhibition at 100 µg/mL [12] [%] | inhibition at 50 µg/mL [13] [%] | melting point [°C]
CO/N=C(/C(=O)N[C@@H](C)CSC)c1ccccc1CO/N=C(\N)c1snc(Cl)c1Cl [CL04-25E] | 54 | > 50 | 10.9 | 35.7 | 19.1 ± 6.56 | > 30 | 21.2 | 11.4 | 16.7 | 16 ± 7.71 | 0 | 52.9 | > 40 | 26 ± 4.71 | 9.09 | –
CO/N=C(/C(=O)NC(C)(C)CSC)c1ccccc1CO/N=C(C)/C=C/c1snc(Cl)c1Cl [CL04-32E] | 58 | – | 39.5 | 32.1 | 1.52 ± 0.62 | 24.2 | 15.2 | 11.4 | 12.5 | > 70 | 13.7 ± 0.55 | 41.2 | – | > 40 | 5.45 | –
CO/N=C(/C(=O)NC(C)(C)CSC)c1ccccc1CO/N=C(\N)c1snc(Cl)c1Cl [CL04-25D] | 62 | – | 27.7 | 39.3 | > 30 | 21.2 | 15.2 | 17.1 | 12.5 | 21.1 ± 3.69 | 0 | 52.9 | > 40 | 21.1 ± 1.69 | 16.4 | 28 to 30
CO/N=C(/C(=O)NCC(F)F)c1ccccc1CO/N=C(\N)c1snc(Cl)c1Cl [CL04-24] | 62 | > 50 | 39.5 | 37.5 | 15 ± 3.08 | > 30 | 24.2 | 22.9 | 16.7 | > 30 | 27.3 ± 6.56 | 52.9 | – | 36.8 ± 5.5 | 12.7 | 118 to 120
